Test results taken from the supplement of paper PMC10307832.

Experiments:
Assay in all cases: relative viability (nuclei count vs DMSO), 5 days (fraction); higher = more cells survive
[1] = compound: COCC[n+]1c2c(n(Cc3cnccn3)c1C)C(=O)c1ccccc1C2=O [YM155] + CS(=O)(=O)CCNCc1ccc(-c2ccc3ncnc(Nc4ccc(OCc5cccc(F)c5)c(Cl)c4)c3c2)o1 [Lapatinib] (partner 2 µM)
Procedure, shortened: (§1)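 A single step with final 0.05% Triton X-100, 1% formaldehyde and 1 ug/ml Hoechst fixed the cells and stained nuclei 5 days after treatment. Lung cancer cell lines in 1536-well plates had been treated by pin tool the day after seeding with one drug alone or a fixed anchor-drug dose plus five library-drug doses (not always all listed) in √10 steps, and nuclei were counted on 4× images. Relative viability is the ratio of nuclei in treated wells to nuclei in vehicle wells, taken as the median of duplicate plates.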

[2] = compound: CC(C)(C)c1cc(NC(=O)Nc2ccc(-c3cn4c(n3)sc3cc(OCCN5CCOCC5)ccc34)cc2)no1 [Quizartinib] + COc1cccc2cc(-c3nc([C@H]4CC[C@H](C(=O)O)CC4)n4ncnc(N)c34)[nH]c12 [OSI-027] (partner 0.5 µM)
Procedure, shortened: as §1

[3] = compound: CC(C)(C)c1cc(NC(=O)Nc2ccc(-c3cn4c(n3)sc3cc(OCCN5CCOCC5)ccc34)cc2)no1 [Quizartinib] + CS(=O)(=O)N1CCN(Cc2cc3nc(-c4cccc5[nH]ncc45)nc(N4CCOCC4)c3s2)CC1 [Pictilisib] (partner 1 µM)
Procedure, shortened: as §1

[4] = compound: COCC[n+]1c2c(n(Cc3cnccn3)c1C)C(=O)c1ccccc1C2=O [YM155] + Cc1nc(Nc2ncc(C(=O)Nc3c(C)cccc3Cl)s2)cc(N2CCN(CCO)CC2)n1 [Dasatinib] (partner 0.075 µM)
Procedure, shortened: as §1

| Cell Line | relative viability ([1]; first compound 0.002 µM) | relative viability ([1]; first compound 0.006325 µM) | relative viability ([1]; first compound 0.02 µM) | relative viability ([1]; first compound 0.06325 µM) | relative viability ([2]; first compound 0.003162 µM) | relative viability ([2]; first compound 0.01 µM) | relative viability ([2]; first compound 0.03162 µM) | relative viability ([2]; first compound 0.1 µM) | relative viability ([3]; first compound 0.001 µM) | relative viability ([3]; first compound 0.003162 µM) | relative viability ([3]; first compound 0.01 µM) | relative viability ([3]; first compound 0.03162 µM) | relative viability ([3]; first compound 0.1 µM) | relative viability ([4]; first compound 0.002 µM) | relative viability ([4]; first compound 0.006325 µM) | relative viability ([4]; first compound 0.02 µM) | relative viability ([4]; first compound 0.06325 µM) | relative viability ([2]; first compound 0.001 µM) |
| --- | --- | --- | --- | --- | --- | --- | --- | --- | --- | --- | --- | --- | --- | --- | --- | --- | --- | --- |
| UMC-11 | 0.846 | 0.964 | 0.994 | 0.93 | 0.383 | 0.46 | 0.466 | 0.467 | 0.522 | 0.779 | 0.836 | 0.742 | 0.885 | 0.374 | 0.49 | 0.518 | 0.51 | – |
| EPLC-272H | 1.05 | 0.854 | 0.941 | 0.949 | 0.28 | 0.264 | 0.271 | 0.263 | 0.314 | 0.391 | 0.405 | 0.323 | 0.398 | 0.358 | 0.371 | 0.396 | 0.365 | 0.249 |
